Data published in patent publication US20120122860A1, “SOLID FORMS OF SULFONAMIDES AND AMINO ACIDS” (Plexxikon, Inc., priority 2009, published 2012).

Key:
[1] = target: B-Raf (Homo sapiens, UniProt P15056); test: Kinase activity assay, B-Raf; format: biochemical; conditions: read-out: activity toward kinase B-Raf, IC50
[2] = target: B-Raf V600E (Homo sapiens, UniProt P15056, V600E); test: Kinase activity assay, B-Raf V600E; format: biochemical; conditions: read-out: activity toward kinase B-Raf V600E, IC50
B-Raf V600E, sequence (P15056 whole entry V600E): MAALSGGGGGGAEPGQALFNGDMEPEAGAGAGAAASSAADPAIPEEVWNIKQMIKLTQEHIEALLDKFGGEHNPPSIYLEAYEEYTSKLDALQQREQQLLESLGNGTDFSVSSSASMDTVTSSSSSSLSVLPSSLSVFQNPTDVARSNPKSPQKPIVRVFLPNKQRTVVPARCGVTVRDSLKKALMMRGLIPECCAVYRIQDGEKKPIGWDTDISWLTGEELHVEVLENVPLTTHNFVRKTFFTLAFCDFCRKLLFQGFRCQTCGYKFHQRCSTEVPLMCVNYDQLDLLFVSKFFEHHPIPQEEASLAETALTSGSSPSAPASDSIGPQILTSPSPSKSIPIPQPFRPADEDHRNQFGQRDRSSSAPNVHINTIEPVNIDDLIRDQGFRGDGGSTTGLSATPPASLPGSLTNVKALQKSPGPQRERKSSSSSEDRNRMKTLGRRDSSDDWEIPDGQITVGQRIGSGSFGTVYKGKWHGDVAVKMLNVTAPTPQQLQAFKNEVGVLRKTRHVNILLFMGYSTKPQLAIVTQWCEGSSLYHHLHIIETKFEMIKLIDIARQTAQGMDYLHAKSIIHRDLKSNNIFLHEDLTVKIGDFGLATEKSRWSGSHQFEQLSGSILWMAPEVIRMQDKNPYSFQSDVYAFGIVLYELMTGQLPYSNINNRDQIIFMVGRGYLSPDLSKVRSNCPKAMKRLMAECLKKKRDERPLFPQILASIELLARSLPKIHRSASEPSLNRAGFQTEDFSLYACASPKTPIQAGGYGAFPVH

[3] = target: Kdr (Homo sapiens, UniProt P35968); test: Kinase activity assay, Kdr
[4] = target: Kit (Homo sapiens, UniProt P10721); test: Kinase activity assay, Kit
Kit, sequence (P10721 26-976): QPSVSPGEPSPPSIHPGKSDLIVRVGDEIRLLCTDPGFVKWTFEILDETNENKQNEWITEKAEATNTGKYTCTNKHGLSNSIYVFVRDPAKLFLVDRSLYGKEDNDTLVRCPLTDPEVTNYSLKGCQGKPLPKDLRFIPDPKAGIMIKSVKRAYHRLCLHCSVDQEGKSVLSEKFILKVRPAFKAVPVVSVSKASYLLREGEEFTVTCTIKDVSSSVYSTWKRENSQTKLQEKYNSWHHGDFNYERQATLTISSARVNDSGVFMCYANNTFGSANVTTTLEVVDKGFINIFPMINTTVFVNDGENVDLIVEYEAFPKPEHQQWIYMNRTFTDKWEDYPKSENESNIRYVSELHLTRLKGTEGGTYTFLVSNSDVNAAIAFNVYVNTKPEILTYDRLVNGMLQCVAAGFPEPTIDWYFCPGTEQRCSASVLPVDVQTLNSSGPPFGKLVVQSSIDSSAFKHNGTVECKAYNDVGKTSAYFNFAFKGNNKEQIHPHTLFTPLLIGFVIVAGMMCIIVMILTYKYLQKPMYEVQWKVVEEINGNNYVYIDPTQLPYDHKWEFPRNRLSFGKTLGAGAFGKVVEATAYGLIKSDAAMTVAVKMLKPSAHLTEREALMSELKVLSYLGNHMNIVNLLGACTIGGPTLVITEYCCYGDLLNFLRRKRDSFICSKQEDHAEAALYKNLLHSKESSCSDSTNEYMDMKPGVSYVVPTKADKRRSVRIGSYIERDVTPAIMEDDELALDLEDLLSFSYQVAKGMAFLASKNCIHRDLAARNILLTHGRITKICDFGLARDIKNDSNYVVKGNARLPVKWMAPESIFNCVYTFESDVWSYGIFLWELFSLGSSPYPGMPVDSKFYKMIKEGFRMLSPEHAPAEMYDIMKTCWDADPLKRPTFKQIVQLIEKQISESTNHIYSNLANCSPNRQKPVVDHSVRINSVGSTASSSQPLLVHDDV

[5] = target: Src (Homo sapiens, UniProt P12931); test: Kinase activity assay, Src
Src, sequence (P12931 whole entry): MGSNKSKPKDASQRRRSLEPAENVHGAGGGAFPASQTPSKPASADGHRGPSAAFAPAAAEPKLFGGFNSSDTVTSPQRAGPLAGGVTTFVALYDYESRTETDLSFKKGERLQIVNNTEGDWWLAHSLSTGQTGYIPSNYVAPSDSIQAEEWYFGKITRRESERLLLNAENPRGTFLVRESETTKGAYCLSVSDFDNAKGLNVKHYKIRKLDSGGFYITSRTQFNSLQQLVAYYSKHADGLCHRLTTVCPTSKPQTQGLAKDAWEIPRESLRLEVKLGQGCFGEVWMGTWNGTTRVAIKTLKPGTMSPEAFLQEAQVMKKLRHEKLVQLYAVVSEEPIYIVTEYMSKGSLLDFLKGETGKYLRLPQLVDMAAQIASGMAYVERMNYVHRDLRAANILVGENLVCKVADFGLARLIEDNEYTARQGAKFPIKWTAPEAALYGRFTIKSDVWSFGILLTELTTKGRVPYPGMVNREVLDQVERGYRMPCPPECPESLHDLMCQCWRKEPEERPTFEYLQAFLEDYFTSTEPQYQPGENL

[6] = target: T1, A-Raf (Homo sapiens, UniProt P10398); test: Kinase activity assay, A-Raf
T1 sequence (P10398 1-606): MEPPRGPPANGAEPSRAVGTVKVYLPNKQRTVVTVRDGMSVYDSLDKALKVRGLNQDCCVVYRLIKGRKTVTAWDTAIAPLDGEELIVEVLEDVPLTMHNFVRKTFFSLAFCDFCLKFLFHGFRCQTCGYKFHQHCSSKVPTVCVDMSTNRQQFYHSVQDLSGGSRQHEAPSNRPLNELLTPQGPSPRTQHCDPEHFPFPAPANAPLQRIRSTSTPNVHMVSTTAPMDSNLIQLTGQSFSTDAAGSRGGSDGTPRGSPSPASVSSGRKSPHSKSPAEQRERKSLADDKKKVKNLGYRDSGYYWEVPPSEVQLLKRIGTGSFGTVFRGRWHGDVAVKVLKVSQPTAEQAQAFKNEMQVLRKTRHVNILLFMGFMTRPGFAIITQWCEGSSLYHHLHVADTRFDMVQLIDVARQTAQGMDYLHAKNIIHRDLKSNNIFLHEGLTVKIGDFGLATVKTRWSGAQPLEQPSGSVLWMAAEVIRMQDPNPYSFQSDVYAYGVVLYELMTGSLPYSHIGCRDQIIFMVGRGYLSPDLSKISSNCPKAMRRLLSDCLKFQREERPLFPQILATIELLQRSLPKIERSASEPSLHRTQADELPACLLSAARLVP

[7] = target: C-Raf (Homo sapiens, UniProt P04049); test: Kinase activity assay, C-Raf
C-Raf, sequence (P04049 whole entry): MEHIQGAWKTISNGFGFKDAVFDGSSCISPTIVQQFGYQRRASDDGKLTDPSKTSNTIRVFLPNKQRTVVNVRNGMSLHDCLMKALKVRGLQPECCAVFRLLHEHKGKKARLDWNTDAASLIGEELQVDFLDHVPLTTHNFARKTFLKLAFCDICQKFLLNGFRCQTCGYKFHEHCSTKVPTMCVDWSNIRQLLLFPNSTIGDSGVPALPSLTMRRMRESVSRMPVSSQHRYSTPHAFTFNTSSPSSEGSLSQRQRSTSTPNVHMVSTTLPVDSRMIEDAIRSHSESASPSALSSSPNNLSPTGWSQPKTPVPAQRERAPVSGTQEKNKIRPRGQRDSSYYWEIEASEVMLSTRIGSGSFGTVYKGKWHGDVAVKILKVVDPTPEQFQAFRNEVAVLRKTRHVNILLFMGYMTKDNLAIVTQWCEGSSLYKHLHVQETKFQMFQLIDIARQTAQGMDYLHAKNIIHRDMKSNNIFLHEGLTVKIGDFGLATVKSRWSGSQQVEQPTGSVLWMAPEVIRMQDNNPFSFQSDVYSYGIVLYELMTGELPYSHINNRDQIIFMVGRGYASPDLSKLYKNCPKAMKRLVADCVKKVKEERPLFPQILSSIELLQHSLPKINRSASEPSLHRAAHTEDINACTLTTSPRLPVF

[8] = target: MAP4K4 (Homo sapiens, UniProt O95819); test: Kinase activity assay, MAP4K4
MAP4K4, sequence (O95819 whole entry): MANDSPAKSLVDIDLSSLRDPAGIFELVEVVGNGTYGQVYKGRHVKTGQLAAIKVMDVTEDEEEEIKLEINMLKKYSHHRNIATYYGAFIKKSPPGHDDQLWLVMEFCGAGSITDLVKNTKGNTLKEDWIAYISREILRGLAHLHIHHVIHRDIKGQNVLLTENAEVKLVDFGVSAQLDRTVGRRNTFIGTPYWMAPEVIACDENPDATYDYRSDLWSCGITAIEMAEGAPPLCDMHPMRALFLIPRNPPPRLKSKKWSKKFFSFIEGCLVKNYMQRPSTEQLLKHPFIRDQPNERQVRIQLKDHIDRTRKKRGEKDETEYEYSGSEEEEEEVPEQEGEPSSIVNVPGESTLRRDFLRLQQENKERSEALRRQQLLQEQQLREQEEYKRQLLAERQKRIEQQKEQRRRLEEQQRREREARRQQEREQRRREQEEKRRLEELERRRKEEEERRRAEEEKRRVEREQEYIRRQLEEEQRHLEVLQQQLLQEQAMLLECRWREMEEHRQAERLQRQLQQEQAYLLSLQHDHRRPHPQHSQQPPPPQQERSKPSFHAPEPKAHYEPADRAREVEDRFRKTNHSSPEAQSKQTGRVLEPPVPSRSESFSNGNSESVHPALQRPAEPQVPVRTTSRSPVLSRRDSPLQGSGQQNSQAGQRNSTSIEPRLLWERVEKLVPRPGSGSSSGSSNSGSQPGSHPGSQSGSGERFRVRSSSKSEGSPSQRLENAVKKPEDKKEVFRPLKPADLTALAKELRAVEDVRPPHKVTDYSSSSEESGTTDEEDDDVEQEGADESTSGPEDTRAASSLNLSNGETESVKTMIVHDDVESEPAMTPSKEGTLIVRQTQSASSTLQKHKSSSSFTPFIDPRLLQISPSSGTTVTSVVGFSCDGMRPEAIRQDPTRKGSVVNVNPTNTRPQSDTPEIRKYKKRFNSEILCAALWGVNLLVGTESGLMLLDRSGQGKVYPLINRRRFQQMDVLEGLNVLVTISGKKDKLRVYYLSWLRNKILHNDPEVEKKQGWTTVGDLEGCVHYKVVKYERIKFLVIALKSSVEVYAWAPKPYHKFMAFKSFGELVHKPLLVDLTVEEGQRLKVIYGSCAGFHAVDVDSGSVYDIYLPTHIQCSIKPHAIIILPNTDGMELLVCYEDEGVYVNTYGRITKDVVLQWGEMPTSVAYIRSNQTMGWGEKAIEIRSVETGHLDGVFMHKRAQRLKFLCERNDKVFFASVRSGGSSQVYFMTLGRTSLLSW

B-Raf, sequence (P15056 whole entry): as the sequence (P15056 whole entry V600E) above, with E600V counted along it

Row | Compound | IC50 [1] [µM] | IC50 [2] [µM] | IC50 [3] [µM] | IC50 [4] [µM] | IC50 [5] [µM] | IC50 [6] [µM] | IC50 [7] [µM] | IC50 [8] [µM]
1 | N#Cc1ccnc2[nH]cc(C(=O)c3c(F)ccc(NS(=O)(=O)c4cc(F)ccc4F)c3F)c12 [P-2036, N-[3-(4-Cyano-1H-pyrrolo[2,3-b]pyridine-3-carbonyl)-2,4-difluoro-phenyl]-2,5-difluoro-benzenesulfonamide] | ≤ 10 | ≤ 10 | ≤ 10 | ≤ 10 | ≤ 10 | ≤ 10 | ≤ 10 | ≤ 10
2 | CCS(=O)(=O)Nc1ccc(F)c(C(=O)c2c[nH]c3ncc(OC)cc23)c1F [P-2272, Ethanesulfonic acid [2,4-difluoro-3-(5-methoxy-1H-pyrrolo[2,3-b]pyridine-3-carbonyl)-phenyl]-amide] | ≤ 10 | ≤ 10 | ≤ 10 | ≤ 10 | ≤ 10 | ≤ 10 | ≤ 10 | ≤ 10
3 | Cc1cnc2[nH]cc(C(=O)c3c(F)ccc(NS(=O)(=O)c4ncn[nH]4)c3F)c2c1 [P-2065, 2H-[1,2,4]Triazole-3-sulfonic acid [2,4-difluoro-3-(5-methyl-1H-pyrrolo[2,3-b]pyridine-3-carbonyl)-phenyl]-amide] |  | ≤ 10 | ≤ 10 |  | ≤ 10 | ≤ 10 | ≤ 10 | ≤ 10
4 | Cc1cnc2[nH]cc(C(=O)c3c(F)ccc(NS(=O)(=O)c4cccnc4)c3F)c2c1 [P-2069, Pyridine-3-sulfonic acid [2,4-difluoro-3-(5-methyl-1H-pyrrolo[2,3-b]pyridine-3-carbonyl)-phenyl]-amide] | ≤ 10 | ≤ 10 |  |  | ≤ 10 | ≤ 10 | ≤ 10 | ≤ 10
5 | CCS(=O)(=O)Nc1ccc(F)c(C(=O)c2c[nH]c3ncc(Cl)cc23)c1F [P-2274, Ethanesulfonic acid [3-(5-chloro-1H-pyrrolo[2,3-b]pyridine-3-carbonyl)-2,4-difluoro-phenyl]-amide] | ≤ 10 | ≤ 10 | ≤ 10 | ≤ 10 |  | ≤ 10 | ≤ 10 | ≤ 10
6 | COc1ccnc2[nH]cc(C(=O)c3c(F)ccc(NS(=O)(=O)c4ccccn4)c3F)c12 [P-2076, Pyridine-2-sulfonic acid [2,4-difluoro-3-(4-methoxy-1H-pyrrolo[2,3-b]pyridine-3-carbonyl)-phenyl]-amide] | ≤ 10 | ≤ 10 |  |  | ≤ 10 | ≤ 10 | ≤ 10 | ≤ 10
7 | CCS(=O)(=O)Nc1ccc(F)c(C(=O)c2c[nH]c3nccc(Cl)c23)c1F [P-2276, Ethanesulfonic acid [3-(4-chloro-1H-pyrrolo[2,3-b]pyridine-3-carbonyl)-2,4-difluoro-phenyl]-amide] | ≤ 10 | ≤ 10 | ≤ 10 |  | ≤ 10 | ≤ 10 | ≤ 10 | ≤ 10
8 | O=C(c1c(F)ccc(NS(=O)(=O)c2ccccn2)c1F)c1c[nH]c2nccc(Cl)c12 [P-2075, Pyridine-2-sulfonic acid [3-(4-chloro-1H-pyrrolo[2,3-b]pyridine-3-carbonyl)-2,4-difluoro-phenyl]-amide] | ≤ 10 | ≤ 10 | ≤ 10 |  | ≤ 10 | ≤ 10 | ≤ 10 | ≤ 10
9 | N#Cc1cnc2[nH]cc(C(=O)c3c(F)ccc(NS(=O)(=O)c4ccccn4)c3F)c2c1 [P-2063, Pyridine-2-sulfonic acid [3-(5-cyano-1H-pyrrolo[2,3-b]pyridine-3-carbonyl)-2,4-difluoro-phenyl]-amide] | ≤ 10 | ≤ 10 |  |  | ≤ 10 | ≤ 10 | ≤ 10 | ≤ 10
10 | O=C(c1c(F)ccc(NS(=O)(=O)c2ncn[nH]2)c1F)c1c[nH]c2ncc(Cl)cc12 [P-2062, 2H-[1,2,4]Triazole-3-sulfonic acid [3-(5-chloro-1H-pyrrolo[2,3-b]pyridine-3-carbonyl)-2,4-difluoro-phenyl]-amide] |  | ≤ 10 | ≤ 10 |  | ≤ 10 | ≤ 10 | ≤ 10 | ≤ 10

The next lines start with the values.

Row | IC50 [1] [µM] | IC50 [2] [µM] | IC50 [3] [µM] | IC50 [4] [µM] | IC50 [5] [µM] | IC50 [6] [µM] | IC50 [7] [µM] | IC50 [8] [µM] | Compound
11 | ≤ 10 | ≤ 10 | ≤ 10 | ≤ 10 | ≤ 10 | ≤ 10 | ≤ 10 | ≤ 10 | O=C(c1c(F)ccc(NS(=O)(=O)CCC(F)(F)F)c1F)c1c[nH]c2nccc(Cl)c12 [P-2329, 3,3,3-Trifluoro-propane-1-sulfonic acid [3-(4-chloro-1H-pyrrolo[2,3-b]pyridine-3-carbonyl)-2,4-difluoro-phenyl]-amide]
12 |  | ≤ 10 | ≤ 10 | ≤ 10 | ≤ 10 | ≤ 10 |  | ≤ 10 | CCCC(C)S(=O)(=O)Nc1ccc(F)c(C(=O)c2c[nH]c3ncc(C)cc23)c1F (stereo not shown) [P-2315, Pentane-2-sulfonic acid [2,4-difluoro-3-(5-methyl-1H-pyrrolo[2,3-b]pyridine-3-carbonyl)-phenyl]-amide]
13 | ≤ 10 | ≤ 10 | ≤ 10 |  | ≤ 10 | ≤ 10 | ≤ 10 | ≤ 10 | CCS(=O)(=O)Nc1ccc(F)c(C(=O)c2c[nH]c3ncc(C)cc23)c1F [P-2277, Ethanesulfonic acid [2,4-difluoro-3-(5-methyl-1H-pyrrolo[2,3-b]pyridine-3-carbonyl)-phenyl]-amide]
14 |  | ≤ 10 | ≤ 10 |  | ≤ 10 | ≤ 10 | ≤ 10 | ≤ 10 | Cc1cnc2[nH]cc(C(=O)c3c(F)ccc(NS(=O)(=O)CC(F)(F)F)c3F)c2c1 [P-2337, 2,2,2-Trifluoro-ethanesulfonic acid [2,4-difluoro-3-(5-methyl-1H-pyrrolo[2,3-b]pyridine-3-carbonyl)-phenyl]-amide]
15 | ≤ 10 | ≤ 10 | ≤ 10 |  | ≤ 10 | ≤ 10 | ≤ 10 | ≤ 10 | O=C(c1c(F)ccc(NS(=O)(=O)C(F)(F)F)c1F)c1c[nH]c2ncc(Cl)cc12 [P-2346, N-[3-(5-Chloro-1H-pyrrolo[2,3-b]pyridine-3-carbonyl)-2,4-difluoro-phenyl]-C,C,C-trifluoro-methanesulfonamide]
16 | ≤ 10 | ≤ 10 | ≤ 10 |  | ≤ 10 | ≤ 10 | ≤ 10 | ≤ 10 | CCCS(=O)(=O)Nc1cccc(C(=O)c2c[nH]c3ncc(-c4cnc(N(C)C)nc4)cc23)c1F [P-2408, Propane-1-sulfonic acid {3-[5-(2-dimethylamino-pyrimidin-5-yl)-1H-pyrrolo[2,3-b]pyridine-3-carbonyl]-2-fluoro-phenyl}-amide]
17 | ≤ 10 | ≤ 10 |  | ≤ 10 | ≤ 10 | ≤ 10 | ≤ 10 | ≤ 10 | O=C(c1c(F)ccc(NS(=O)(=O)C2CCCCC2)c1F)c1c[nH]c2nccc(Cl)c12 [P-2367, Cyclohexanesulfonic acid [3-(4-chloro-1H-pyrrolo[2,3-b]pyridine-3-carbonyl)-2,4-difluoro-phenyl]-amide]
